Experimental data taken from PubChem BioAssay AID2060358 (Molecular Pharmacology Branch, DTP, NCI, 2025).

Tested on: 254851-301-R-J1-PDC spheroids, viability % test/control
Experiment: Anticancer human tumor 254851-301-R-J1-PDC patient-derived colon carcinoma cell line growth inhibition [TAK]
Conditions: spheroids with HUVEC and MSC; for IC50: curve of first compound; for viability, T/C: stronger effect = lower value; active = viability on the fitted dose curve at most 10% of control; inactive = the rest
How it was run: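 Drug combinations, each paired with TAK-243 or ipatasertib, were tested on multi-cell spheroids of 60% malignant cells, 25% HUVEC and 15% hMSC. Top concentrations were at or near the clinical Cmax (10 microM if undetermined), decreasing by half-log; viability is given as % test/control.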

[1] = second compound 0.3 µM, first compound 0.0316 µM
[2] = second compound 0.3 µM, first compound 0.1 µM
[3] = second compound 0.3 µM, first compound 0.316 µM
[4] = second compound 0.3 µM, first compound 1 µM
[5] = second compound 0.3 µM, first compound 3.16 µM
[6] = second compound 0.3 µM, first compound 10 µM
[7] = second compound 0.949 µM, first compound 0.0316 µM
[8] = second compound 0.949 µM, first compound 0.1 µM
[9] = second compound 0.949 µM, first compound 0.316 µM
[10] = second compound 0.949 µM, first compound 1 µM
[11] = second compound 0.949 µM, first compound 3.16 µM
[12] = second compound 0.949 µM, first compound 10 µM
[13] = second compound 3 µM, first compound 0.0316 µM
[14] = second compound 3 µM, first compound 0.1 µM
[15] = second compound 3 µM, first compound 0.316 µM
[16] = second compound 3 µM, first compound 1 µM
[17] = second compound 3 µM, first compound 3.16 µM
[18] = second compound 3 µM, first compound 10 µM
[19] = second compound 9.49 µM, first compound 0.0316 µM
[20] = second compound 9.49 µM, first compound 0.1 µM
[21] = second compound 9.49 µM, first compound 0.316 µM
[22] = second compound 9.49 µM, first compound 1 µM
[23] = second compound 9.49 µM, first compound 3.16 µM
[24] = second compound 9.49 µM, first compound 10 µM
[25] = second compound 30 µM, first compound 0.0316 µM
[26] = second compound 30 µM, first compound 0.1 µM
[27] = second compound 30 µM, first compound 0.316 µM
[28] = second compound 30 µM, first compound 1 µM
[29] = second compound 30 µM, first compound 3.16 µM
[30] = second compound 30 µM, first compound 10 µM
[31] = second compound 0.3 µM, first compound 0.000316 µM
[32] = second compound 0.3 µM, first compound 0.001 µM
[33] = second compound 0.3 µM, first compound 0.00316 µM
[34] = second compound 0.3 µM, first compound 0.01 µM
[35] = second compound 0.949 µM, first compound 0.000316 µM
[36] = second compound 0.949 µM, first compound 0.001 µM
[37] = second compound 0.949 µM, first compound 0.00316 µM
[38] = second compound 0.949 µM, first compound 0.01 µM
[39] = second compound 3 µM, first compound 0.000316 µM
[40] = second compound 3 µM, first compound 0.001 µM
[41] = second compound 3 µM, first compound 0.00316 µM
[42] = second compound 3 µM, first compound 0.01 µM
[43] = second compound 9.49 µM, first compound 0.000316 µM
[44] = second compound 9.49 µM, first compound 0.001 µM
[45] = second compound 9.49 µM, first compound 0.00316 µM
[46] = second compound 9.49 µM, first compound 0.01 µM
[47] = second compound 30 µM, first compound 0.000316 µM
[48] = second compound 30 µM, first compound 0.001 µM
[49] = second compound 30 µM, first compound 0.00316 µM
[50] = second compound 30 µM, first compound 0.01 µM
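Also: spheroids exposed to drugs for seven days before viability readout.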
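For viability, T/C in this document: 100% = DMSO vehicle control viability.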

CC(C)(C)c1nc(-c2cccc(NS(=O)(=O)c3c(F)cccc3F)c2F)c(-c2ccnc(N)n2)s1 + CC(C)NCC(C(=O)N1CCN(c2ncnc3c2C(C)CC3O)CC1)c1ccc(Cl)cc1
> 10000 nM: IC50 (second compound 0.3 µM) | IC50 (second compound 0.949 µM) | IC50 (second compound 3 µM) | IC50 (second compound 9.49 µM) | IC50 (second compound 30 µM)
inactive: viability, T/C [1] 114% | viability, T/C [2] 103% | viability, T/C [3] 87.3% | viability, T/C [4] 84.8% | viability, T/C [5] 77% | viability, T/C [6] 72% | viability, T/C [7] 115% | viability, T/C [8] 104% | viability, T/C [9] 95.2% | viability, T/C [10] 81% | viability, T/C [11] 76% | viability, T/C [12] 75.4% | viability, T/C [13] 106% | viability, T/C [14] 107% | viability, T/C [15] 88.1% | viability, T/C [16] 79.4% | viability, T/C [17] 75.6% | viability, T/C [18] 63.8% | viability, T/C [19] 101% | viability, T/C [20] 105% | viability, T/C [21] 92.5% | viability, T/C [22] 78.4% | viability, T/C [23] 71.8% | viability, T/C [24] 64.7% | viability, T/C [25] 79% | viability, T/C [26] 81.7% | viability, T/C [27] 83.9% | viability, T/C [28] 69.1% | viability, T/C [29] 59.7% | viability, T/C [30] 54.6%

CC(C)CC(NC(=O)CNC(=O)c1cc(Cl)ccc1Cl)B1OC(=O)CC(CC(=O)O)(C(=O)O)O1 (stereo not given) + CC(C)NCC(C(=O)N1CCN(c2ncnc3c2C(C)CC3O)CC1)c1ccc(Cl)cc1
53.7 nM: IC50 (second compound 0.3 µM)
57.6 nM: IC50 (second compound 30 µM)
56.9 nM: IC50 (second compound 9.49 µM)
inactive: viability, T/C [31] 103% | viability, T/C [32] 100% | viability, T/C [33] 95.8% | viability, T/C [34] 101% | viability, T/C [1] 73.7% | viability, T/C [2] 22.2% | viability, T/C [35] 98.6% | viability, T/C [36] 102% | viability, T/C [37] 95.3% | viability, T/C [38] 95% | viability, T/C [7] 67.3% | viability, T/C [8] 23.2% | viability, T/C [39] 95.8% | viability, T/C [40] 107% | viability, T/C [41] 98.9% | viability, T/C [42] 102% | viability, T/C [13] 70.2% | viability, T/C [14] 17.9% | viability, T/C [43] 96.8% | viability, T/C [44] 101% | viability, T/C [45] 97.7% | viability, T/C [46] 95.1% | viability, T/C [19] 76.6% | viability, T/C [20] 24.5% | viability, T/C [47] 78.2% | viability, T/C [48] 63% | viability, T/C [49] 81.4% | viability, T/C [50] 86% | viability, T/C [25] 80% | viability, T/C [26] 24.4%
49.7 nM: IC50 (second compound 0.949 µM)
49.2 nM: IC50 (second compound 3 µM)

CC(C)n1nc(-c2ccc3oc(N)nc3c2)c2c(N)ncnc21 + CC(C)NCC(C(=O)N1CCN(c2ncnc3c2C(C)CC3O)CC1)c1ccc(Cl)cc1
35.7 nM: IC50 (second compound 9.49 µM)
31.1 nM: IC50 (second compound 0.949 µM)
24.8 nM: IC50 (second compound 30 µM)
41.9 nM: IC50 (second compound 0.3 µM)
inactive: viability, T/C [31] 119% | viability, T/C [32] 101% | viability, T/C [33] 93.3% | viability, T/C [34] 78.4% | viability, T/C [1] 54.3% | viability, T/C [2] 32.4% | viability, T/C [35] 102% | viability, T/C [36] 101% | viability, T/C [37] 94.7% | viability, T/C [38] 78.3% | viability, T/C [7] 49.3% | viability, T/C [8] 33.6% | viability, T/C [39] 100% | viability, T/C [40] 105% | viability, T/C [41] 85.2% | viability, T/C [42] 72.7% | viability, T/C [13] 57.5% | viability, T/C [14] 36.2% | viability, T/C [43] 96.6% | viability, T/C [44] 109% | viability, T/C [45] 90.8% | viability, T/C [46] 76.6% | viability, T/C [19] 53% | viability, T/C [20] 31.9% | viability, T/C [47] 88.1% | viability, T/C [48] 86.5% | viability, T/C [49] 84.5% | viability, T/C [50] 69.6% | viability, T/C [25] 44.9% | viability, T/C [26] 31.1%
44.4 nM: IC50 (second compound 3 µM)

CCCS(=O)(=O)Nc1ccc(F)c(C(=O)c2c[nH]c3ncc(-c4ccc(Cl)cc4)cc23)c1F + CC(C)NCC(C(=O)N1CCN(c2ncnc3c2C(C)CC3O)CC1)c1ccc(Cl)cc1
inactive: viability, T/C [3] 92.5% | viability, T/C [4] 90.3% | viability, T/C [5] 63.9% | viability, T/C [6] 68.4% | viability, T/C (second compound 0.3 µM, first compound 31.6 µM) 38.1% | viability, T/C (second compound 0.3 µM, first compound 100 µM) 85.7% | viability, T/C [9] 99.2% | viability, T/C [10] 95.1% | viability, T/C [11] 79.4% | viability, T/C [12] 64.8% | viability, T/C (second compound 0.949 µM, first compound 31.6 µM) 30.2% | viability, T/C (second compound 0.949 µM, first compound 100 µM) 76.8% | viability, T/C [15] 79.7% | viability, T/C [16] 88.8% | viability, T/C [17] 70.3% | viability, T/C [18] 67.9% | viability, T/C (second compound 3 µM, first compound 31.6 µM) 20.2% | viability, T/C (second compound 3 µM, first compound 100 µM) 82.5% | viability, T/C [21] 95.3% | viability, T/C [22] 85.3% | viability, T/C [23] 71% | viability, T/C [24] 51.5% | viability, T/C (second compound 9.49 µM, first compound 31.6 µM) 52.3% | viability, T/C (second compound 9.49 µM, first compound 100 µM) 83% | viability, T/C [27] 91.5% | viability, T/C [28] 92.8% | viability, T/C [29] 82.6% | viability, T/C [30] 51.8% | viability, T/C (second compound 30 µM, first compound 31.6 µM) 26.7% | viability, T/C (second compound 30 µM, first compound 100 µM) 80.7%
> 100000 nM: IC50 (second compound 0.3 µM) | IC50 (second compound 0.949 µM) | IC50 (second compound 3 µM) | IC50 (second compound 9.49 µM) | IC50 (second compound 30 µM)
